d = 2'-deoxy (DNA); r = 2'-OH (RNA)
Columns and labels:
Assay type in all cases: cell-based
[1] = tested on: human primary lung small airway epithelial cells (HSAEC); assay: FACS detection of intercellular delivery of oligos in HSAEC; settings: for cells with intercellular signals of the oligos, Arginine compared with lipofectamine (FACS): 10 ul/well Arginine vs lipofectamine
[2] = tested on: primary human lung small airway epithelial cells; assay: Fluorescence microscopy of oligo entry into HSAEC; settings: 24-48 hours, fluorescent filter 10x/20x, lipofectamine, poly-arginine or no reagent per FIG. 1
[3] = tested on: primary human lung bronchial/tracheal epithelial cells; assay: Fluorescence microscopy of oligo entry into HBTEC; settings: 24-48 hours, fluorescent filter 10x/20x, delivery per FIG. 20
[4] = tested on: Human Primary Nasal Epithelial Cells; assay: Fluorescence microscopy of oligo entry into HNEpC; settings: 24-48 hours, fluorescent filter 10x/20x, delivery per FIG. 35

Substance: VS_DsiRNA-Cy5: DsiRNA SEQ ID NOs: 23 & 24, target N-protein, Cy5 labeled (chain 1 AAACUAAAAUGUCUGAUAAUGGACC; chain 2 GGUCCAUUAUCAGACAUUUUAGUUUGU; chain 1: sugars from the 5' end r23 d2, backbone not given here; chain 2: chemistry not given here; Cy5 label)
- cells with intercellular signals of the oligos, Arginine compared with lipofectamine (FACS) [1]: more cells with intercellular signals of the oligos
- intensities of fluorescent signals in cells (FACS) vs no-treatment control ([1]; Arginine only (10 ul/well)): significantly higher
- intensities of fluorescent signals in cells (FACS) vs no-treatment control ([1]; with lipofectamine): significantly higher
- entry into cells, microscopic analysis [2]: entry
- entry into cells, microscopic analysis [3]: entry
- entry into cells, microscopic analysis [4]: can enter epithelial cells

Substance: TGTTAATTGGAACGCCTTGTC (FANA modified, pattern not given here, FITC label) [VS_ASO_1-FANA-FITC]
- intensities of fluorescent signals in cells (FACS) vs no-treatment control ([1]; without lipofectamine or Arginine reagents): significantly stronger
- entry into cells, microscopic analysis [2]: entry
- entry into cells, microscopic analysis [3]: entry
- entry into cells, microscopic analysis [4]: can enter epithelial cells

Substance: TGTTAATTGGAACGCCTTGTC (Cy3 label, position not given here) [VS_ASO_2-Cy3]
- cells with intercellular signals of the oligos, Arginine compared with lipofectamine (FACS) [1]: more cells with intercellular signals of the oligos
- intensities of fluorescent signals in cells (FACS) vs no-treatment control ([1]; Arginine only (10 ul/well)): significantly higher
- intensities of fluorescent signals in cells (FACS) vs no-treatment control ([1]; with lipofectamine): significantly higher

From patent publication US11732264B2, “Compositions and methods for treating COVID-19” (Vast Sea Biotechnology, Inc., priority 2020, dated 2023)
